# Test results reported in patent US20040023953A1, “Tricylic mercaptomethyl-substituted 2,3-dihydro-quinazolin-5-ones and 2,3-dihydro-benzo-[1,2,4]-thiadiazin-5,5-dioxides as matrix metalloproteinase (MMP) inhibitors” (priority 2000, published 2004).
# Tests used:
# Assay type in all cases: biochemical
# [1] = target: T1, recombinant catalytic domain of MMP-8 (Homo sapiens, UniProt P22894); assay: Quantitative fluorescence assay, inhibition of catalytic domain of MMP-8; settings: for MMP-8 inhibition with 10 μM: 10 μM inhibitor, no explicit Ki value since the dixon plot is non-linear
# T1 construct: instead of the whole enzyme only its enzymatically active catalytic domain was cloned into E. coli; made in house; host or cells: E. coli
# From the text: Cloning and Expression of the Catalytic MMP-8 Domain
# The catalytic MMP-8 domain was used as another test enzyme because it has a high degree of stability and is also available as an active enzyme and therefore needs not be activated, which is in consideration as one of the most frequent causes of error since the mercury compounds used for the activation often interfere with the test system and/or the enzyme and in this way can falsify the measuring results. The cloning strategy was directed towards the circumstance that instead of the whole enzyme only its enzymatically active catalytic domain was cloned into E. coli.
# The cloning and expression of the recombinant catalytic MMP-8 domain was carried out in accordance with the statements made by SCHNIERER et al. (Schnierer S., Kleine T., Gote T., Hillemann A., Knäuper V., Tschesche H.: The recombinant catalytic domain of human neutrophil collagenase lacks type I collagen substrate specificity. Biochem Biophys Res Comm (1993), vol. 191, No. 2, 319-326).
# (§1) Quantitative Fluorescence Assay for Matrix Metalloproteinases
# (§2) The fluorescent group Mca is separated from the internal quencher Dpa by enzymatic cleavage of the synthetic substrate Mca-Pro-Leu-Gly-Leu-Dpa-Ala-Arg-NH2 using the respective collagenase. This is accompanied by a great increase in fluorescence in the measuring batch, which can be quantified using a fluorimeter (λex 328 nm, λem 393 nm) and proceeds linearly within the first few minutes. A certain specificity of the test to matrix metalloproteinases follows from the amino acid sequence-Pro-Leu-Gly-Leu-in the substrate, on the one hand, and from the select incubation conditions, on the other hand. Matrix metalloproteinases cleave the substrate at the Gly-Leu bond. The proteolytic residual activity of pre-incubated batches of enzyme and inhibitor is measured, the substrate and enzyme concentrations having been kept constant and the inhibitor concentration having been varied. Three series of measurements using a different substrate concentration were made for each tested inhibitor. The enzyme activity is calculated in fluorescence units per min. on the basis of the time-sensitive fluorescence increase. The Ki values were determined graphically according to the DIXON method (1953) by applying the reciprocal reaction rate 1/v (y axis) against inhibitor concentration (x axis).
# (§3) 2 μl inhibitor dissolved in DMSO, or DMSO alone (non-inhibitory approach) 4 μl enzyme (MMP-2 or MMP-9 or catalytic domain of MMP-8)
# (§4) 5 min. preliminary incubation of the enzyme-inhibitor mixture at room temperature while stirring start of the reaction with 10 μl substrate dissolved in DMSO recording of the time-sensitive fluorescence increase over a period of 2 min.
# (§5) Inhibition of human MMPs by the inhibitors of general formulae Ia and Ib according to the invention
# MMP-2 (gelatinase) = target: T2, MMP-2 (gelatinase) (Homo sapiens, UniProt P08253); assay: Quantitative fluorescence assay, inhibition of MMP-2; settings: 10 μM inhibitor; no explicit Ki value since the dixon plot is non-linear
# T2 construct: endogenous in cells; host or cells: human dermal fibroblasts (secreted into culture medium)
# T2 sequence (P08253 110-660): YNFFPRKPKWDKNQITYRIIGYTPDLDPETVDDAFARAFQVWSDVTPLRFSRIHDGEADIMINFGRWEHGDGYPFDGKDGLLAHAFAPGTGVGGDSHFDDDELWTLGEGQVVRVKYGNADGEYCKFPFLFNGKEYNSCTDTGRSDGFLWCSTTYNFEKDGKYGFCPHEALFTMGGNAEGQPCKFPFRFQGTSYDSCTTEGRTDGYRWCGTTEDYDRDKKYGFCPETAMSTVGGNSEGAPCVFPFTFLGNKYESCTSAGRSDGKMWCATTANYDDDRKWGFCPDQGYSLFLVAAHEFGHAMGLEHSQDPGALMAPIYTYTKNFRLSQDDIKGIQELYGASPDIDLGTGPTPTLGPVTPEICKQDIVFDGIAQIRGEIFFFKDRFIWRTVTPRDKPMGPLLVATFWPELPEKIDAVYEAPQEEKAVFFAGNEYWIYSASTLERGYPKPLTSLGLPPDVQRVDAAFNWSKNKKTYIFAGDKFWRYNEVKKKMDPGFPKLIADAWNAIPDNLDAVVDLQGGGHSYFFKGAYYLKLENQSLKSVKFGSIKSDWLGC
# Procedure: Inhibition of the Matrix Metalloproteinase-2 (MMP-2)
# MMP-2 (gelatinase) is supplied by cultivated dermal fibroblasts to the culture medium in considerable amounts and is thus easily accessible.
# For this purpose, human dermal fibroblasts are obtained according to established standard methods and cultivated and the cell-free culture supernatant is treated with trypsin. Trypsin is then inactivated with a specific inhibitor (TLCK) and active MMP-2 is partially purified by affinity chromatography on gelatin sepharose and subsequent gel filtration on sepharose. MMP-2 was identified and characterized by the availability of a commercial immunoassay.
# as §1, §2, §3, §4, §5
# MMP-9 = target: T3, MMP-9 (Homo sapiens, UniProt P14780); assay: Quantitative fluorescence assay, inhibition of MMP-9; settings: for Ki: DIXON method; for MMP-9 inhibition with 10 μM: 10 μM inhibitor, no explicit Ki value since the dixon plot is non-linear
# T3 construct: from tissue; host or cells: human buffy coat (blood leukocytes)
# Procedure: Preparation of the Human Collagenase MMP-9
# Native MMP-9 was obtained reproducibly and with good yield and purity from human Buffy Coat. For this purpose, Buffy Coat is brought to a final concentration of 0,4% using 10% (v/v) triton X-100, shaken on ice for 30 min. and then 1 vol. double binding buffer (40 mM Tris-HCl, pH 7.5, 10 mM CaCl2, 1 M NaCl, 0.2% (v/v) triton X-100) is added and shaking on ice is continued for another 30 min.
# The solution is centrifuged off at 16,000 rpm on an SS-34 rotor at 4° C. for 15 min. and filtered on glass wool. The filtrate is batched with gelatin agarose equilibrated with binding buffer and shaken on ice for 1 hour.
# The charged gelatin agarose is transferred to a column and rinsed in protein-free manner using at least 10 vol. binding buffer. The bound MMP-9 is eluted with 2 gel volumes binding buffer plus 5% (v/v) DMSO.
# For an exchange of buffers and simultaneous separation of minor MMP-2 contaminations the eluate can be separated on sephadex G-75 by means of gel filtration. Buffer I (20 mM Tris-HCl, pH 7.5, 5 mM CaCl2, 100mM NaCl, 0.1% (v/v) triton X-100) is used for this purpose.
# The resulting eluate contains MMP-9 in the three known configurations: monomer, homodimer, heterodimer. The purity of the enzyme is about 90%, the rest of the foreign proteins being fibronectin and extremely small amounts of TIMPs.
# The latent enzyme is activated by incubation at 37° C. using 1/100 vol. trypsin (10 mg/ml), for 30-60 min. Trypsin is inhibited by adding 1 mM PMSF or with a specific inhibitor (TLCK).
# as §1
# as §2, with “A certain specificity of the test to matrix metalloproteinases follows from the amino acid sequence-Pro-Leu-Gly-Leu-in the substrate, on the one hand, and from the select incubation conditions, on the other hand. Matrix metalloproteinases cleave the substrate at the Gly-Leu bond.” left out, “Three series of measurements using a different substrate concentration were made for each tested inhibitor.” left out, “axis). […]” for “axis).”
# 5 min. preliminary incubation of the enzyme-inhibitor mixture at room temperature while stirring start of the reaction with 10 μl substrate dissolved in DMSO recording of the time-sensitive fluorescence increase over a period of 2 min. […]
# [2] = target: T4, MT1-MMP (recombinant catalytic domain of MMP-14) (Homo sapiens, UniProt P50281); assay: Quantitative fluorescence assay, inhibition of MT1-MMP; settings: for Ki: DIXON method
# T4 construct: recombinant catalytic domain of MMP-14
# From the text: In particular when used as medicaments, specific inhibitors would only influence the desired target enzymes but not disturb the balanced interplay of the other MMPs, thus helping to avoid possible undesired side-effects.
# as §1, §2, §5
# T3 sequence (P14780 107-707 limits assumed): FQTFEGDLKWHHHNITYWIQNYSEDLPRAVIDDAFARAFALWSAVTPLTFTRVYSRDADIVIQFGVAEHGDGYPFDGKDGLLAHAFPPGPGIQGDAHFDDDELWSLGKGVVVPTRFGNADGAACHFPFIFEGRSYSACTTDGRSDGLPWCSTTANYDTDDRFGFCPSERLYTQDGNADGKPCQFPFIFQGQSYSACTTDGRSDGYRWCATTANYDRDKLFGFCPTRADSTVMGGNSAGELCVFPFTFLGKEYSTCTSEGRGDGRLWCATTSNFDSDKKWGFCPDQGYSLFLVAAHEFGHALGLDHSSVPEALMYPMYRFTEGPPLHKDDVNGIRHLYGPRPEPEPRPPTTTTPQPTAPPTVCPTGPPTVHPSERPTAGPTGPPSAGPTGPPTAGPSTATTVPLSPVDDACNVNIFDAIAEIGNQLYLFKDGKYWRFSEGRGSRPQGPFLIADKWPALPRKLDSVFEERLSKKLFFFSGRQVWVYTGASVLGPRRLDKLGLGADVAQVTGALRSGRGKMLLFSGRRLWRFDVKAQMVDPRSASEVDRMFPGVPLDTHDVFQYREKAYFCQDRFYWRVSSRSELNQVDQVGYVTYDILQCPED
# T1 sequence (P22894 100-262 limits assumed): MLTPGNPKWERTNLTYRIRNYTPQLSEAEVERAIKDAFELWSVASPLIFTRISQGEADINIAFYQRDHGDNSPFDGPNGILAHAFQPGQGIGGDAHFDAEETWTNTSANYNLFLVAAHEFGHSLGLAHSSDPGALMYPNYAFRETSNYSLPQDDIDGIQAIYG
SMILES,MMP-8 inhibition with 10 μM [1] [%],MMP-2 inhibition with 10 μM (MMP-2 (gelatinase)) [%],Ki (MMP-9) [µM],Ki [2] [µM],Ki ([1]; DIXON method) [µM],MMP-9 inhibition with 10 μM (MMP-9) [%],"MT1-MMP inhibition with 10 μM ([2]; 10 μM inhibitor, no explicit Ki value since the dixon plot is non-linear) [%]","MT1-MMP inhibition with 2.5 μM ([2]; 2.5 μM inhibitor, no explicit Ki value since the dixon plot is non-linear) [% inhi-]"
"O=c1c2ccccc2nc2n1C[C@H](CS)S2 (racemic) [Example 1, (R,S)-2-Mercaptomethyl-2,3-dihydro-5H-thiazolo(2,3-b]-quinazoline-5-one]",80,70,–,–,–,–,–,50
"O=C(O)c1ccc2c(=O)n3c(nc2c1)S[C@@H](CS)C3 (racemic) [Example 3, (R,S)-8-carboxy-2-mercaptomethyl-2,3-dihydro-5H-thiazolo [2,3-b]quinazoline-5-one]",–,25,15,21,24,–,–,–

# Second part, led by results:
MMP-8 inhibition with 10 μM [1] [%],MMP-2 inhibition with 10 μM (MMP-2 (gelatinase)) [%],Ki (MMP-9) [µM],Ki [2] [µM],Ki ([1]; DIXON method) [µM],MMP-9 inhibition with 10 μM (MMP-9) [%],"MT1-MMP inhibition with 10 μM ([2]; 10 μM inhibitor, no explicit Ki value since the dixon plot is non-linear) [%]",SMILES,"MT1-MMP inhibition with 2.5 μM ([2]; 2.5 μM inhibitor, no explicit Ki value since the dixon plot is non-linear) [% inhi-]"
85,50,1,4,–,–,–,"C[C@]1(CS)Cn2c(nc3ccccc3c2=O)S1 (racemic) [Example 2, (R,S)-2-mercaptomethyl-2-methyl-2,3-dihydro-5H-thiazolo[2,3-b]quinazoline-5-one]",–
90,80,–,–,–,85,85,"O=c1c2ccc(Cl)cc2nc2n1C[C@H](CS)S2 (racemic) [Example 5, (R,S)-8-chloro-2-mercaptomethyl-2,3-dihydro-5H-thiazolo(2,3-b]quinazoline-5-one]",–
25,50,–,55,–,75,–,"O=c1c2ccccc2nc2n1[C@H](CS)CS2 (racemic) [Example 4, (R,S)-3-mercaptomethyl-2,3-dihydro-5H-thiazolo[2,3-b]quinazoline-5-one]",–
